Source: patent publication US5994342A, “3-(substituted methyl)-4-oxa-1-azabicyclo[3.2.0]heptan-7-one derivatives useful as antitumor agents” (priority 1994, dated 1999)
In brackets after ≈: the same amount, converted by molar mass. Structures can show the parent of a compound that is named as a salt.

Assays:
KB cells = assay: In vitro KB cell cytotoxicity assay (crystal violet); assay type: cell-based; conditions: Homo sapiens, 72 h, 3 days culture, read-out: KB Cell Cytotoxicity TD50
Procedure: In Vitro KB Cell Cytotoxicity Assay In vitro KB cell cytoxocity assay was done by modification of the crystal violet assay ([…] et al., Anal Biochem., 159, 109-113 (1986). KB cells were cultivated in Eagles minimum essential medium supplemented with 10% calf serum and incubated at 37° C. in a humidified 5% CO2 atmosphere to prepare a cell stock. Cells were counted using a neubauer hemocytometer and seeded in 96 well plates at 100 μl of 3×10^4 cells/ml and cultured for one day. […] Control wells were identical except that test compound was absent. These were cultured for three days. Then the cells were fixed with addition of 20 μl of 25% glutaraldehyde for 15 minutes, washed with water and dried. Then stained with 100 μl of 0.05% crystal violet for 15 minutes, washed with water and dried. The wells are eluted with […] of 0.05M NaH2 PO4 /ethanol (1:1 v/v) and read at OD540 on a multiscan spectrophotometer. Inhibition value of cell growth was calculated based on optical density using the following equation; [formula] TD50 values were calculated from linear regression ines of the log-logit plot.

Sarcoma 180 = assay: In vivo antitumor activity against Sarcoma 180; set-up: species or system male ICR mice; conditions: i.p., days 1, 5 and 9
Procedure: In Vivo Antitumor Activity Against Sarcoma 180
The compounds of general formula (I) were tested in vivo against Sarcoma 180 xenografted tumor to mice as illustrated herein after.
Sarcoma 180, 5×10^6 cells were inoculated by S.C. to male ICR mice (6 week old) on day 0. Drugs were administered on days 1, 5 and 9. Mice were killed and tumor weight was measured on day 12 after transplantation. The percentage inhibition of tumor growth was calculated from the mean tumor weight of the treated group compared with that of the control group. Number of mice used in each group was between 6 to 7.

[1] = Mus musculus, Sarcoma-180, ip, 288 h, 100 mg/kg/day, tumor s.c., tumor weight day 12, read-out: % Inhibition of tumor growth
[2] = Mus musculus, Sarcoma-180, ip, 288 h, 25 mg/kg/day, tumor s.c., tumor weight day 12, read-out: % Inhibition of tumor growth
[3] = Mus musculus, Sarcoma-180, ip, 288 h, 50 mg/kg/day, tumor s.c., tumor weight day 12, read-out: % Inhibition of tumor growth
[4] = Mus musculus, Sarcoma-180, ip, 288 h, 12.5 mg/kg/day, tumor s.c., tumor weight day 12, read-out: % Inhibition of tumor growth

Row | SMILES | IC50 (KB cells) | Mortality in 12 days (Sarcoma 180; 100 mg/kg/day) | inhibition in vivo at 100 mg/kg (Sarcoma 180; [1]) | Mortality in 12 days (Sarcoma 180; 25 mg/kg/day) | Mortality in 12 days (Sarcoma 180; 50 mg/kg/day) | inhibition in vivo at 25 mg/kg (Sarcoma 180; [2]) | inhibition in vivo at 50 mg/kg (Sarcoma 180; [3]) | Mortality in 12 days (Sarcoma 180; 12.5 mg/kg/day) | inhibition in vivo at 12.5 mg/kg (Sarcoma 180; [4]) | further results
1 | CCCCCC(=O)NC[C@@H]1CN2C(=O)C[C@H]2O1 (racemic) [Example 4, (3RS,5RS)-3-(N-Hexanoylaminomethyl)-4-oxa-1-azabicyclo[3.2.0]heptan-7-one] | 0.312 µg/mL (≈ 1.3 µM) | 0/6 | 49.4% | – | – | – | – | – | – | –
2 | O=C(NC[C@@H]1CN2C(=O)C[C@H]2O1)C1CCCCC1 (racemic) [Example 6, (3RS,5RS)-3-(N-Cyclohexylcarbonylaminomethyl)-4-oxa-1-azabicyclo[3.2.0]heptan-7-one] | 0.073 µg/mL (≈ 0.289 µM) | – | – | – | – | – | – | – | – | Mortality in 12 days (Sarcoma 180; 20 mg/kg/day): 0/6; Mortality in 12 days (Sarcoma 180; 40 mg/kg/day): 0/6; Mortality in 12 days (Sarcoma 180; 80 mg/kg/day): 0/6; inhibition in vivo at 20 mg/kg (Sarcoma 180; Mus musculus, Sarcoma-180, ip, 288 h, 20 mg/kg/day, tumor s.c., tumor weight day 12, read-out: % Inhibition of tumor growth): 32.1%; inhibition in vivo at 40 mg/kg (Sarcoma 180; Mus musculus, Sarcoma-180, ip, 288 h, 40 mg/kg/day, tumor s.c., tumor weight day 12, read-out: % Inhibition of tumor growth): 35.7%; inhibition in vivo at 80 mg/kg (Sarcoma 180; Mus musculus, Sarcoma-180, ip, 288 h, 80 mg/kg/day, tumor s.c., tumor weight day 12, read-out: % Inhibition of tumor growth): 43.3%
3 | CC(C)[C@H](N)C(=O)OC[C@H]1CN2C(=O)C[C@@H]2O1.Cl (mixture of isomers) [Example 54B, (3RS,5SR)-3-(L-2-Amino-3-methylbutyryl)oxymethyl-4-oxa-1-azabicyclo[3.2.0]heptan-7-one hydrochloride] | 1.9 µg/mL | 0/6 | 84.3% | 0/6 | 0/6 | 28.5% | 53.8% | – | – | –
4 | N[C@@H](CC(=O)OC[C@H]1CN2C(=O)C[C@@H]2O1)C(=O)O (mixture of isomers) [Example 65B, (3RS,5SR)-3-(L-3-Amino-3-carboxypropanoyl)oxymethyl-4-oxa-1-azabicyclo[3.2.0]heptan-7-one] | 0.451 µg/mL | 0/6 | 55% | – | – | – | – | – | – | –
5 | C[C@H](N)C(=O)NCC(=O)OC[C@H]1CN2C(=O)C[C@@H]2O1.Cl (mixture of isomers) [Example 41B, (3RS,5SR)-3-[N-(L-2-Aminopropanoyl)aminoacetyl]oxymethyl-4-oxa-1-azabicyclo[3.2.0]heptan-7-one hydrochloride] | 0.295 µg/mL | – | – | 0/6 | – | 62.8% | – | 0/6 | 43.9% | –
6 | Cl.NCC(=O)OC[C@H]1CN2C(=O)C[C@@H]2O1 (racemic) [Example 39, (3RS,5SR)-3-(Aminoacetyl)oxymethyl-4-oxa-1-azabicyclo[3.2.0]heptan-7-one hydrochloride] | 0.613 µg/mL | – | – | 0/6 | 0/6 | 56.7% | 76.7% | 0/6 | 41.9% | –
7 | NCC(=O)NC[C@@H]1CN2C(=O)C[C@H]2O1 (relative stereo) [Example 43, (3RS,5RS)-3-N-(Aminoacetyl)aminomethyl-4-oxa-1-azabicyclo[3.2.0]heptan-7-one hydrochloride] | 0.429 µg/mL | – | – | 0/6 | 0/6 | 58.9% | 72.1% | 0/6 | 57% | Mortality in 12 days (Sarcoma 180; 6.3 mg/kg/day): 0/6; inhibition in vivo at 6.3 mg/kg (Sarcoma 180; Mus musculus, Sarcoma-180, ip, 288 h, 6.3 mg/kg/day, tumor s.c., tumor weight day 12, read-out: % Inhibition of tumor growth): 48.7%
8 | N[C@H](CCC(=O)OC[C@H]1CN2C(=O)C[C@@H]2O1)C(=O)O (mixture of isomers) [Example 68B, (3RS,5SR)-3-(D-4-Amino-4-carboxybutyryl)oxymethyl-4-oxa-1-azabicyclo[3.2.0]heptan-7-one] | 0.189 µg/mL | – | – | 0/6 | 3/6 | 69.7% | 80.3% | 0/6 | 49.1% | –
9 | CC(C)[C@H](N)C(=O)N[C@H](C(=O)OCC1CN2C(=O)CC2O1)C(C)C (stereo partly drawn) [Example 56B, (3RS,5SR)-3-[L-2-N-(L-2-Amino-3-methylbutyryl)amino-3-methylbutyryl]oxymethyl-4-oxa-1-azabicyclo-[3.2.0]heptan-7-one hydrochloride] | 0.283 µg/mL | – | – | 0/6 | 0/6 | 69.2% | 73.2% | 0/6 | 48.9% | –
10 | CC(C)[C@H](N)C(=O)N[C@@H](C)C(=O)OCC1CN2C(=O)CC2O1 (stereo partly drawn) [Example 49B, (3RS,5SR)-3-[L-2-N-(L-2-Amino-3-methylbutyryl)aminopropanoyl]oxymethyl-4-oxa-1-azabicyclo[3.2.0]heptan-7-one hydrochloride] | 0.537 µg/mL | – | – | 0/6 | 0/6 | 55.7% | 71% | – | – | –
11 | CC(C)[C@H](NC(=O)CN)C(=O)OCC1CN2C(=O)CC2O1 (stereo partly drawn) [Example 55B, (3RS,5SR)-3-[L-2-(N-Aminoacetyl)amino-3-methylbutyryl]oxymethyl-4-oxa-1-azabicyclo[3.2.0]heptan-7-one hydrochloride] | 0.522 µg/mL | – | – | 0/6 | 0/6 | 47.6% | 74.4% | – | – | –
12 | COc1ccc(S(=O)(=O)NC[C@H]2CN3C(=O)C[C@@H]3O2)cc1 (relative stereo) [Example 38, (3RS,5RS)-3-N-(4-Methoxybenzenesulfonyl)aminomethyl-4-oxa-1-azabicyclo[3.2.0]heptan-7-one] | 0.158 µg/mL (≈ 0.506 µM) | 1/6 | 72% | 0/6 | 0/6 | 26.5% | 55.4% | – | – | –
13 | CC(C)[C@@H](N)C(=O)N[C@@H](C(=O)OCC1CN2C(=O)CC2O1)C(C)C (stereo partly drawn) [Example 62B, (3RS,5SR)-3-[D-2-N-(D-2-Amino-3-methylbutyryl)amino-3-methylbutyryl]oxymethyl-4-oxa-1-azabicyclo[3.2.0]heptan-7-one hydrochloride] | 0.381 µg/mL | 0/6 | 42.1% | – | – | – | – | – | – | –
14 | N[C@@H](CC(=O)O)C(=O)NCC(=O)NCC1CN2C(=O)CC2O1 (stereo partly drawn) [Example 46B, (3RS,5RS)-3-N-[N-(L-2-Amino-3-carboxypropanoyl)aminoacetyl]aminomethyl-4-oxa-1-azabicyclo[3.2.0]heptan-7-one] | 2.63 µg/mL (≈ 8.37 µM) | – | – | 0/6 | 1/6 | 55.7% | 76.9% | 0/6 | 44.7% | –
15 | CC(=O)N[C@@H](CO)C(=O)OCC1CN2C(=O)CC2O1 (stereo partly drawn) [Example 75A, (3RS,5SR)-3-(L-2-Acetamido-3-hydroxypropanoyl)oxymethyl-4-oxa-1-azabicyclo[3.20]heptan-7-one] | 1.98 µg/mL (≈ 7.27 µM) | – | – | 0/6 | – | 61.9% | – | 0/6 | 42.8% | –
16 | O=C(NC[C@@H]1CN2C(=O)C[C@H]2O1)c1ccccc1 (racemic) [Example 23, (3RS,5RS)-3-(N-Benzoylaminomethyl)-4-oxa-1-azabicyclo[3.2.0]heptan-7-one] | 0.088 µg/mL (≈ 0.357 µM) | 0/6 | 27.8% | – | – | – | – | – | – | –
17 | N[C@H](CCC(=O)NCC1CN2C(=O)CC2O1)C(=O)O (stereo partly drawn) [Example 69B, (3RS,5RS)-3-N-(D-4-Amino-4-carboxybutyryl)aminomethyl-4-oxa-1-azabicyclo[3.2.0]heptan-7-one] | 2.47 µg/mL (≈ 9.11 µM) | 0/6 | 37.8% | – | – | – | – | – | – | –
18 | CS(=O)(=O)NC[C@H]1CN2C(=O)C[C@H]2O1 (racemic) [Example 35, (3RS,5RS)-3-(N-Methanesulfonylaminomethyl)-4-oxa-1-azabicyclo[3.2.0]heptan-7-one] | 0.198 µg/mL (≈ 0.899 µM) | 1/6 | 64.6% | – | – | – | – | – | – | –
